Our source for the Kd values is paper PMC8162404, “Proteomimetic surface fragments distinguish targets by function” (Chemical Science, 2020).

Assay [1] has as its target T1, Gal-1 (Homo sapiens, UniProt P09382).
T1 construct: made in house; host or cells: E. coli BL21(DE3)
Briefly: Pull-down assay with immobilized protein and LSM libraries. Particulars: H14 library; 1:1 binding assumed; read-out: Surface mapping KD (apparent). It is filed as binding. An outline of the steps:
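His-tagged protein immobilized on Co-NTA resin (64 µM) in 20 mM HEPES pH 7.4, 150 mM NaCl, equilibrated 30 min at room temperature with foldamer LSM sublibraries at equimolar total concentration. Unbound fractions quantified by HPLC-MS versus protein-free resin control; apparent KD assumes 1:1 binding.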

In the next assay the target is T2, S100A4 (Homo sapiens, UniProt P26447).
T2 construct: made in house; host or cells: Escherichia coli BL21(DE3)
The assay is described as above. The settings on record: H14 library; 1:1 binding assumed; read-out: Surface mapping KD (apparent). It counts as binding. In a few lines:
(§1)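 Buffers were HEPES pH 7.4 with 150 mM NaCl, plus 1 mM TCEP and 1 mM CaCl2 (50 mM HEPES) for S100A4 and S100B, 1 mM TCEP for Gal-1, and no additive for RecQ-WH. Immobilized protein at 64 µM was equilibrated 30 min with the LSM sublibrary, and unbound probes were measured by LC-MS.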

Assay [2] concerns the target T1, Gal-1. Put plainly: Competition pull-down with lactose. It is filed as binding. Particulars: H14 library; lactose 10 mM; read-out: Surface mapping KD (apparent), competition. The procedure: Interactions between the H14 helical LSMs and the targets were abundant, but safe recognition of the native PPI interfaces on the targets is a criterion of druggability. To gain insight into the ability of the LSMs to detect orthosteric spots, we carried out pull-down assays in the presence of the native ligands (Table 2) of the targets (Fig. 5). For highlighting the effect of the competitor on the binding fingerprints, KD ratios and the LSM replacement percentages were calculated and are represented as heat maps (see ESI, Fig. S7 ^†). […] This could be explained by the glycan selective native recognition domain of the protein. We note that the replacement pattern for a single probe can, in theory, be complex. […] Moreover, a single probe can bind to both orthosteric and non-orthosteric spots, which limits overall displacement levels. To avoid overlooking interesting orthosteric weak binders, direct replacement levels were assessed (see ESI, Fig. S7 ^†).
Pull-down assay and data analysis
Pull-down assay. LSM sublibraries were screened separately as previously described.(2) Experiments were performed in the following buffers: (i) 20 mM pH 7.4 HEPES, 150 mM NaCl, 5 mM CaCl2 for CaM; (ii) 50 mM pH 7.4 HEPES, 150 mM NaCl, 1 mM TCEP, 1 mM CaCl2 for S100 proteins; (iii) 20 mM pH 7.4 HEPES, 150 mM NaCl, 1 mM TCEP for Gal-1 and (iv) 20 mM pH 7.4 HEPES, 150 mM NaCl for RecQ-WH. Assays were performed in paper filter spin cups (Thermo Scientific) with sample volumes of 100 µl. Hexahistidine-tagged proteins were immobilized on previously washed Co-NTA resin (TALON, Takara Bio USA, Inc., Mountain View, CA) in 64 µM final concentration. LSM sublibrary was added, in which each of the 64 library members were used at a concentration of 1 µM. Samples were incubated at room temperature for 30 min with shaking at 100 rpm. Then, samples were centrifuged at 1000 rpm for 2 min and washed with 100 µl pull-down buffer to remove unbound compounds.
The control experiments were performed using the same compounds and the resin but without the immobilized protein. In case of competitive assays, competitor peptides were added to LSM sublibrary samples in 200 µM final concentration. In the case of Gal-1, lactose (competitor) was used in a concentration of 10 mM. Experiments were performed at least twice. Mean […]
LC-MS methods and parameters. HPLC/ESI-MS analysis was used to characterize the samples from the pull-down assay. LC-MS analysis was performed with a Thermo Scientific Dionex UltiMate 3000 HPLC system interfaced to an LTQ ion trap mass spectrometer (Thermo Electron Corp., San Jose, CA, USA). Samples were injected onto an Aeris Widepore XB-C18 (250 x 4.6 mm) analytical HPLC column using gradient elution 5-80 % solution B during 25 minutes. For pull-down samples, eluent composition was 0.1% acetic acid in distilled water (Solution A) and 0.1% acetic acid in acetonitrile (solution B). Mass spectra were acquired in full scan mode from 200 to 2000 m/z range. For overlapping peaks, selective reaction monitoring (SRM) was […]
MS data analysis. Thermo Xcalibur 2.2 software was used for peak identification and integration. The majority of the foldameric fragments could be resolved independently via HPLC-MS/MS measurements based on molecular weight, MS fragmentation pattern and retention time. Peaks of some foldamers with β3-hIle or β3-hLeu in position R2 could not be resolved, these were integrated and averaged. In the processing method, each sample component was associated to a chromatographic peak based on previously identified mass (m/z) and retention time (ref (2) and Table S7-10). Using ICIS peak detection algorithm, the general detection and integration criteria were: smoothing points: 5, baseline window: 80, area noise factor: 5, peak noise factor: 10. Using these processing setups, all raw data files were reprocessed together and analyzed. Errors in peak identification during the automatic processing were corrected manually.
Calculation of the discussed parameters […]

In assay [3] the target is T3, CaM (Bos taurus, UniProt P62157).
T3 construct: made in house; host or cells: E. coli BL21 (DE3)
Put plainly: Competition pull-down with native ligand TRPV1-Ct15. It counts as binding, bovine. The settings on record: H14 library; competitor peptide 200 µM; read-out: Surface mapping KD (apparent), competition.

Assay [4] concerns the target T3, CaM. Put plainly: Pull-down assay with immobilized protein and LSM libraries. It is filed as binding, bovine. The settings on record: H14 library; 1:2 stoichiometry assumed; read-out: Surface mapping KD (apparent). An outline of the steps: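 His-tagged protein immobilized on Co-NTA resin, equilibrated 30 min at room temperature with LSM sublibraries (64 members, […]), equimolar protein to total probe. CaM buffer: 20 mM HEPES pH 7.4, 150 mM NaCl, 5 mM CaCl2. Bound fractions from HPLC-MS loss of unbound probe versus protein-free resin control; Kd derived.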

Another assay addresses T4, S100B (Homo sapiens, UniProt P04271).
T4 construct: made in house; host or cells: Escherichia coli BL21(DE3)
T4 sequence (P04271 1-92): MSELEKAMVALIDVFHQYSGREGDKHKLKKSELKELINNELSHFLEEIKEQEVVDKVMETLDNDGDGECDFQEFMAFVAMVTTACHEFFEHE
Described as above. The settings on record: H14 library; 1:1 binding assumed; read-out: Surface mapping KD (apparent). It counts as binding. In a few lines: as §1

T2 sequence (P26447 whole entry): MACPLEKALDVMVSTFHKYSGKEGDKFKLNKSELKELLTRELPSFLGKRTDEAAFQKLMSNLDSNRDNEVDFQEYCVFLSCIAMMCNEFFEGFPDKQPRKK
T1 sequence (P09382 whole entry): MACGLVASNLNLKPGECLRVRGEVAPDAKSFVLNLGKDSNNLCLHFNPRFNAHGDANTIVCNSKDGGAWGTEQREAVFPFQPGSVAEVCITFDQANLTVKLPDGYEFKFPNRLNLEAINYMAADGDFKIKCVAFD

Take `C[C@@H](CC(=O)N[C@H]1CCCC[C@@H]1C(=O)N[C@H]1CCCC[C@@H]1C(=O)N[C@H](CC(=O)N[C@H]1CCCC[C@@H]1C(N)=O)[C@@H](C)O)NC(=O)[C@H]1CCCC[C@@H]1N` [H14 AT]: the Kd on Gal-1 [1] was determined as 443 µM; at S100A4 it was 356 µM; at Gal-1 [2], 416 µM.

For `NC(=O)[C@H]1CCCC[C@@H]1NC(=O)C[C@H](CC(=O)O)NC(=O)[C@H]1CCCC[C@@H]1NC(=O)[C@H]1CCCC[C@@H]1NC(=O)C[C@H](CC(=O)O)NC(=O)[C@H]1CCCC[C@@H]1N` [H14 DD], the Kd on CaM [3] worked out at 447 µM.

Consider `NC(=O)CC[C@@H](CC(=O)N[C@H]1CCCC[C@@H]1C(N)=O)NC(=O)[C@H]1CCCC[C@@H]1NC(=O)[C@H]1CCCC[C@@H]1NC(=O)C[C@H](CC(=O)O)NC(=O)[C@H]1CCCC[C@@H]1N` [H14 DQ], for which, on CaM [3], the Kd came out at 212 µM.

As for `NCCCC[C@@H](CC(=O)N[C@H]1CCCC[C@@H]1C(=O)N[C@H]1CCCC[C@@H]1C(=O)N[C@H](CC(=O)N[C@H]1CCCC[C@@H]1C(N)=O)Cc1ccccc1)NC(=O)[C@H]1CCCC[C@@H]1N` [H14 KF], the Kd at CaM [4] was 8 µM; on S100A4, 102 µM; on S100B, 26 µM; on CaM [3], 339 µM.

As for `NCCCC[C@@H](CC(=O)N[C@H]1CCCC[C@@H]1C(N)=O)NC(=O)[C@H]1CCCC[C@@H]1NC(=O)[C@H]1CCCC[C@@H]1NC(=O)C[C@H](CCCCN)NC(=O)[C@H]1CCCC[C@@H]1N` [H14 KK], the figures for the Kd at CaM [4], at S100B and at Gal-1 [2] were 49 µM, 53 µM and 298 µM, respectively.

Regarding `NCCCC[C@@H](CC(=O)N[C@H]1CCCC[C@@H]1C(=O)N[C@H]1CCCC[C@@H]1C(=O)N[C@@H](CC(N)=O)CC(=O)N[C@H]1CCCC[C@@H]1C(N)=O)NC(=O)[C@H]1CCCC[C@@H]1N` [H14 KN], the Kd at CaM [4] came to 455 µM; on S100B it was 195 µM; at Gal-1 [2] it was 278 µM.

On to `C[C@@H](O)[C@@H](CC(=O)N[C@H]1CCCC[C@@H]1C(N)=O)NC(=O)[C@H]1CCCC[C@@H]1NC(=O)[C@H]1CCCC[C@@H]1NC(=O)C[C@H](CCCCN)NC(=O)[C@H]1CCCC[C@@H]1N` [H14 KT], for which the Kd was 242 µM at CaM [4], 194 µM on S100B and 370 µM at Gal-1 [2].

For `CSCC[C@@H](CC(=O)N[C@H]1CCCC[C@@H]1C(=O)N[C@H]1CCCC[C@@H]1C(=O)N[C@@H](CC(=O)O)CC(=O)N[C@H]1CCCC[C@@H]1C(N)=O)NC(=O)[C@H]1CCCC[C@@H]1N` [H14 MD], the Kd on S100A4 was found to be 423 µM; at CaM [3] it was 278 µM.

Turning to `CSCC[C@@H](CC(=O)N[C@H]1CCCC[C@@H]1C(=O)N[C@H]1CCCC[C@@H]1C(=O)N[C@@H](CCCCN)CC(=O)N[C@H]1CCCC[C@@H]1C(N)=O)NC(=O)[C@H]1CCCC[C@@H]1N` [H14 MK], the Kd came to 33 µM on CaM [4]; 133 µM at Gal-1 [1]; 339 µM on S100A4; 125 µM at S100B; 149 µM at Gal-1 [2].

As to `C[C@@H](CC(=O)N[C@H]1CCCC[C@@H]1C(N)=O)NC(=O)[C@H]1CCCC[C@@H]1NC(=O)[C@H]1CCCC[C@@H]1NC(=O)C[C@H](CC(N)=O)NC(=O)[C@H]1CCCC[C@@H]1N` [H14 NA], the Kd at CaM [4] turned out to be 185 µM; on CaM [3] it was 399 µM.

Take `NC(=O)C[C@@H](CC(=O)N[C@H]1CCCC[C@@H]1C(=O)N[C@H]1CCCC[C@@H]1C(=O)N[C@@H](CCC(=O)O)CC(=O)N[C@H]1CCCC[C@@H]1C(N)=O)NC(=O)[C@H]1CCCC[C@@H]1N` [H14 NE]: the Kd worked out at 254 µM at CaM [4], 378 µM on Gal-1 [1] and 414 µM on CaM [3].

On to `NC(=O)CC[C@@H](CC(=O)N[C@H]1CCCC[C@@H]1C(=O)N[C@H]1CCCC[C@@H]1C(=O)N[C@@H](CC(=O)O)CC(=O)N[C@H]1CCCC[C@@H]1C(N)=O)NC(=O)[C@H]1CCCC[C@@H]1N` [H14 QD], for which the Kd was 231 µM on CaM [4], 379 µM at Gal-1 [1] and 349 µM on CaM [3].

`NC(=O)CC[C@@H](CC(=O)N[C@H]1CCCC[C@@H]1C(=O)N[C@H]1CCCC[C@@H]1C(=O)N[C@@H](CC(N)=O)CC(=O)N[C@H]1CCCC[C@@H]1C(N)=O)NC(=O)[C@H]1CCCC[C@@H]1N` [H14 QN]: the values for the Kd at CaM [4], on Gal-1 [1] and on CaM [3] were 177 µM, 257 µM and 304 µM, respectively.

Consider `C[C@@H](O)[C@@H](CC(=O)N[C@H]1CCCC[C@@H]1C(N)=O)NC(=O)[C@H]1CCCC[C@@H]1NC(=O)[C@H]1CCCC[C@@H]1NC(=O)C[C@H](CCC(N)=O)NC(=O)[C@H]1CCCC[C@@H]1N` [H14 QT], for which the Kd was 211 µM at CaM [4], 325 µM on Gal-1 [1] and 266 µM on CaM [3].

With `N=C(N)NCCC[C@@H](CC(=O)N[C@H]1CCCC[C@@H]1C(=O)N[C@H]1CCCC[C@@H]1C(=O)N[C@@H](CCC(N)=O)CC(=O)N[C@H]1CCCC[C@@H]1C(N)=O)NC(=O)[C@H]1CCCC[C@@H]1N` [H14 RQ], the values for the Kd on CaM [4], on S100B and at Gal-1 [2] were 326 µM, 116 µM and 421 µM, respectively.

Consider `NC(=O)[C@H]1CCCC[C@@H]1NC(=O)C[C@H](CO)NC(=O)[C@H]1CCCC[C@@H]1NC(=O)[C@H]1CCCC[C@@H]1NC(=O)C[C@H](CO)NC(=O)[C@H]1CCCC[C@@H]1N` [H14 SS], for which the Kd at CaM [4] was found to be 172 µM; on Gal-1 [1], 435 µM; on CaM [3], 236 µM.

Consider `C[C@@H](O)[C@@H](CC(=O)N[C@H]1CCCC[C@@H]1C(=O)N[C@H]1CCCC[C@@H]1C(=O)N[C@@H](CCCCN)CC(=O)N[C@H]1CCCC[C@@H]1C(N)=O)NC(=O)[C@H]1CCCC[C@@H]1N` [H14 TK], for which the results for the Kd on CaM [4], at S100B and at CaM [3] were 88 µM, 172 µM and 485 µM, respectively.

For the molecule `C[C@@H](O)[C@@H](CC(=O)N[C@H]1CCCC[C@@H]1C(=O)N[C@H]1CCCC[C@@H]1C(=O)N[C@@H](CCC(N)=O)CC(=O)N[C@H]1CCCC[C@@H]1C(N)=O)NC(=O)[C@H]1CCCC[C@@H]1N` [H14 TQ], the Kd is 156 µM at CaM [4], 369 µM at Gal-1 [1] and 269 µM on CaM [3].
